One may read the inhibition as how much of the control response was suppressed.

Calls of active or inactive are those of the source. The rule behind the calls is not given here.

Assay [1] deals with T1, NAD-dependent protein deacetylase sirtuin-2 (Homo sapiens) (UniProt Q8IXJ6).
T1 sequence (whole entry): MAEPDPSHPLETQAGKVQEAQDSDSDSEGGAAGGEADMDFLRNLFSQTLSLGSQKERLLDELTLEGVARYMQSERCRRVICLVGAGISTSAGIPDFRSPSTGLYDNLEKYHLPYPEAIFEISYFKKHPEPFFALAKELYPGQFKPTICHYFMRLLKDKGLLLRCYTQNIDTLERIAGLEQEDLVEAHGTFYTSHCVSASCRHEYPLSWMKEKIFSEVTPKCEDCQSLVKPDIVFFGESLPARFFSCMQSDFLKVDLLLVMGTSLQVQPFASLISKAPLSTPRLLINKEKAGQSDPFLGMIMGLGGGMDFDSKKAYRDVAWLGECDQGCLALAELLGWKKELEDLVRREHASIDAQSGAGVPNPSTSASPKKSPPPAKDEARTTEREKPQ
The assay can be described thus: Inhibition of recombinant SIRT2 assessed as lysine deacetylation at 1 to 50 uM.

Assay [2] concerns the target T1, NAD-dependent protein deacetylase sirtuin-2 (Homo sapiens). The assay can be described thus: Inhibition of recombinant SIRT2 assessed as lysine deacetylation at 6.25 to 25 uM.
Assay [3] deals with T2, NAD-dependent protein deacetylase sirtuin-1 (Homo sapiens) (UniProt Q96EB6).
T2 sequence (whole entry): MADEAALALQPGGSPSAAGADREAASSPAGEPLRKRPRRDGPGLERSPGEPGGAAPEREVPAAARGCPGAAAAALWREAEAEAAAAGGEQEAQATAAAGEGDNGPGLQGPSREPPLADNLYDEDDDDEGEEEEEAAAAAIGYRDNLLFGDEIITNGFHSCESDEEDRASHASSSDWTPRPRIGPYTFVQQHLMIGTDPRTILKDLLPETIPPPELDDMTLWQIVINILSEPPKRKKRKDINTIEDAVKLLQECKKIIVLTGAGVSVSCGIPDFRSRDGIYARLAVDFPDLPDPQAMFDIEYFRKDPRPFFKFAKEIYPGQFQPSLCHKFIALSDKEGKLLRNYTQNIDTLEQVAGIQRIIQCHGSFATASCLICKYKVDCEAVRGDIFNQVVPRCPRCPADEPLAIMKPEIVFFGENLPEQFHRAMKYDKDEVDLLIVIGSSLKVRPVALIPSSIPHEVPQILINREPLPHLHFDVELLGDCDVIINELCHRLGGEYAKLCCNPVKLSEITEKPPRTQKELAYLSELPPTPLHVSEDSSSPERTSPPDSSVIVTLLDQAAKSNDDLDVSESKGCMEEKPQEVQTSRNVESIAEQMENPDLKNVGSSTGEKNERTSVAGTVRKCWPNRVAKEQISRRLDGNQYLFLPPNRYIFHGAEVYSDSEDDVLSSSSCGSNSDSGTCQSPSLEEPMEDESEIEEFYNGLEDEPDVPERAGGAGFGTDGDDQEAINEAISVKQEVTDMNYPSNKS
The experiment in a line: Inhibition of recombinant SIRT1 assessed as lysine deacetylation up to 50 uM.

Assay [4] concerns the target T3, NAD-dependent protein deacetylase sirtuin-3, mitochondrial (Homo sapiens) (UniProt Q9NTG7).
T3 sequence (whole entry): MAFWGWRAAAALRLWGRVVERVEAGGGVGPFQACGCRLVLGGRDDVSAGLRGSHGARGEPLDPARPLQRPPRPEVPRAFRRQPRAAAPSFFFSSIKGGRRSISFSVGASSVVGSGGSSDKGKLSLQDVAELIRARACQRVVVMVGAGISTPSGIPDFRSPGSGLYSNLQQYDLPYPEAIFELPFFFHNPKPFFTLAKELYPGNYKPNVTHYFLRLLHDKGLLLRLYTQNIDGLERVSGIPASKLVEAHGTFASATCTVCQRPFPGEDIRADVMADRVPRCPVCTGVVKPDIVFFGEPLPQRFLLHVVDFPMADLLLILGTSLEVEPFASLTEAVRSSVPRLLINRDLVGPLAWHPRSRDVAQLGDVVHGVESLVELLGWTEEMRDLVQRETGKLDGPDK
The assay can be described thus: Inhibition of recombinant SIRT3 assessed as lysine deacetylation up to 50 uM.

Assay [5] deals with T3, NAD-dependent protein deacetylase sirtuin-3, mitochondrial (Homo sapiens). The experiment in a line: Inhibition of recombinant SIRT3 assessed as lysine deacetylation at 10 uM relative to control.
For assay [6], the target named is T1, NAD-dependent protein deacetylase sirtuin-2 (Homo sapiens). The experiment in a line: Inhibition of recombinant SIRT2 assessed as lysine deacetylation at 10 uM relative to control. The arrangement: scale not given: the % may be the effect or the level left.
The target of assay [7] is T2, NAD-dependent protein deacetylase sirtuin-1 (Homo sapiens). The assay can be described thus: Inhibition of recombinant SIRT1 assessed as lysine deacetylation at 10 uM.
For assay [8], the target named is T1, NAD-dependent protein deacetylase sirtuin-2 (Homo sapiens). The experiment in a line: Inhibition of recombinant SIRT2 assessed as lysine deacetylation at 25 uM relative to control. Set-up: scale not given: the % may be the effect or the level left.
The target is the same in assay [9]. The experiment in a line: Inhibition of recombinant SIRT2 assessed as lysine deacetylation at 50 uM relative to control. Set-up: scale not given: the % may be the effect or the level left.

With `CN(C(=O)c1cccc(S(=O)(=O)N(C)c2ccc(Br)cc2)c1)c1ccc(Br)cc1`, the inhibition entry in assay [1] and in assay [2] was “Active” throughout. Also, the inhibition entry in assay [3] and in [4] was “inactive” throughout.
Consider `CN(C(=O)c1cccc(S(=O)(=O)N(C)c2ccc(Br)cc2)c1)c1ccc(Cl)cc1`, for which the inhibition entry in assay [1] was “Active”. For the same compound, the inhibition result in [5] and in assay [7] was “inactive” in each case. In addition, in assay [6], the Activity came to 54%.
On to `CN(C(=O)c1cccc(S(=O)(=O)N(C)c2ccc(Cl)cc2)c1)c1ccc(Br)cc1`, for which, in assay [6], the Activity stood at 72%.
With `CN(C(=O)c1cccc(S(=O)(=O)N(C)c2ccc(Cl)cc2)c1)c1ccc(Cl)cc1`, in assay [1], the inhibition entry is “Active”. Moreover, in assay [5], the inhibition was found to be 5%. In addition, the inhibition result in [7] is “inactive”.
Consider `C=CCN(c1ccc(Br)cc1)S(=O)(=O)c1cccc(C(=O)Nc2ccc(Br)cc2)c1`, for which the Activity in assay [8] turned out to be 92%.
Consider `O=C(Nc1ccc(Br)cc1)c1cccc(S(=O)(=O)Nc2ccc(Br)cc2)c1`, for which, in assay [8], the Activity turned out to be 85%.
On the same count and under the same terms, under `O=C(Nc1ccc(Br)cc1)c1cccc(S(=O)(=O)N(Cc2ccccc2)c2ccc(Br)cc2)c1` stands 80%; under `CCN(c1ccc(Br)cc1)S(=O)(=O)c1cccc(C(=O)Nc2ccc(Br)cc2)c1`, 82%.
Turning to `CN(C(=O)c1cccc(S(=O)(=O)N(C)c2ccc(Br)cc2)c1)c1ccc(F)cc1`, the Activity in [9] was 57%.
`CN(C(=O)c1cccc(S(=O)(=O)N(C)c2ccc(C(F)(F)F)cc2)c1)c1ccc(Br)cc1`: the inhibition result in [5] and in assay [7] was “inactive” each time. Besides, in assay [6], the Activity was found to be 55%.
In the case of `CN(C(=O)c1cccc(S(=O)(=O)N(C)c2ccc(Br)cc2)c1)c1ccc(C(F)(F)F)cc1`, in [9], the Activity was determined as 76%.
Take `CN(c1ccc(Br)cc1)S(=O)(=O)c1cccc(C(=O)Nc2ccc(Br)cc2)c1`: in assay [2], the inhibition entry is “Active”. Besides, the Activity in assay [8] is 56%. For the same compound, the inhibition entry in assay [3] and in assay [4] was “inactive” each time.
For `O=C(Nc1cccc([N+](=O)[O-])c1)c1cccc(S(=O)(=O)N2CCCCCC2)c1`, the inhibition result in [3] was “Active”.

The values are drawn from ChEMBL document CHEMBL2016526, “3-(N-arylsulfamoyl)benzamides, inhibitors of human sirtuin type 2 (SIRT2)” (Bioorg Med Chem Lett, 2012).
